Test results: ChEMBL document CHEMBL4038282 (Eur J Med Chem, 2017)

Key:
[1] = tested on: MDA-MB-231; test: Antiproliferative activity against human MDA-MB-231 cells up to 72 hrs by MTT assay; format: functional, cell-based; settings: MDA-MB-231, 72 h
[2] = tested on: MDA-MB-231; test: Potency index, ratio of curcumin IC50 to compound IC50 for human MDA-MB-231 cells; format: functional
[3] = tested on: HCT-116; test: Antiproliferative activity against human HCT116 cells up to 72 hrs by MTT assay; format: functional, cell-based; settings: HCT-116, 72 h
[4] = tested on: PC-3; test: Antiproliferative activity against human PC3 cells up to 72 hrs by MTT assay; format: functional, cell-based; settings: PC-3, 72 h

IC50 [1] [µM] | IC50 [3] [nM] | IC50 [4] [µM] | Compound | Ratio IC50 [2]
2.98 | 2630 | 3.62 | CC(CO)(CO)C(=O)Oc1ccc(/C=C/C(=O)C(C)(C)C(=O)/C=C/c2ccc(OC(=O)C(C)(CO)CO)cc2)cc1 | 2.4 - 12.2
4.61 | 2790 | 4.74 | COc1ccc(/C=C/C(=O)/C=C(O)/C=C/c2ccc(OC)c(OC(=O)C(C)(CO)CO)c2)cc1OC(=O)C(C)(CO)CO | 3.5
